Here are results for nine molecules from ChEMBL document CHEMBL1133239, “Acid catalyzed Michael additions to artemisitene” (2000).

The test system of assay [1] is Plasmodium falciparum. Kind of assay: Relative antimalarial activity compared to artemisinin against Plasmodium falciparum D6. In kind it is functional.
Assay [2] deals with Plasmodium falciparum. The assay is described as follows: Relative antimalarial activity compared to artemisinin against Plasmodium falciparum W-2. The class given is functional.

Turning to `C[C@@H]1CC[C@H]2[C@H](CCC(=O)C(C)(C)C)C(=O)O[C@@H]3OC4(C)CC[C@@H]1[C@]32OO4` (single isomer, unassigned), the Relative activity was found to be 4.5 in the assay with Plasmodium falciparum [1] and 0.74 in the assay with Plasmodium falciparum [2].
On the same counts, the results for `C[C@@H]1CC[C@H]2[C@H](CC3C=CC(=O)O3)C(=O)O[C@@H]3OC4(C)CC[C@@H]1[C@]32OO4` (single isomer, unassigned) are 0.33 and 0.037.
Turning to `C[C@@H]1CC[C@H]2[C@@H](CC/C(=C/C(=O)c3ccccc3)c3ccccc3)C(=O)O[C@@H]3OC4(C)CC[C@@H]1[C@]32OO4` (single isomer, unassigned), the Relative activity amounted to 6.2 with Plasmodium falciparum [1] and 0.55 with Plasmodium falciparum [2].
The matching figures for `C[C@@H]1CC[C@H]2[C@@H](CCC(=O)C(C)(C)C)C(=O)O[C@@H]3OC4(C)CC[C@@H]1[C@]32OO4` (single isomer, unassigned): 7.4 and 1.13.
On the same counts, the results for `C[C@@H]1CC[C@H]2[C@@H](CC3CCCC3=O)C(=O)O[C@@H]3OC4(C)CC[C@@H]1[C@]32OO4` (single isomer, unassigned) are 0.47 and 0.29.
On to `C[C@@H]1CC[C@H]2[C@@H](CC3C=CC(=O)O3)C(=O)O[C@@H]3OC4(C)CC[C@@H]1[C@]32OO4` (single isomer, unassigned), for which the results for the Relative activity in the assay on Plasmodium falciparum [1] and with Plasmodium falciparum [2] were 0.058 and 0.03, respectively.
With `C[C@@H]1CC[C@H]2[C@H](CC#N)C(=O)O[C@@H]3OC4(C)CC[C@@H]1[C@]32OO4` (single isomer, unassigned), the Relative activity in the assay with Plasmodium falciparum [1] was found to be 0.17; in the assay on Plasmodium falciparum [2], 0.036.
On the same counts, the results for `C[C@@H]1CC[C@H]2[C@@H](CC#N)C(=O)O[C@@H]3O[C@@]4(C)CC[C@@H]1[C@]32OO4` are 0.17 and 0.036.
On the same counts, the results for `C=CCC[C@H]1C(=O)O[C@@H]2OC3(C)CC[C@H]4[C@H](C)CC[C@@H]1[C@@]24OO3` (single isomer, unassigned) are 2.3 and 2.9.
